Measured values published in ChEMBL document CHEMBL5385928, “Sokotrasterol Sulfate Suppresses IFN-γ-Induced PD-L1 Expression by Inhibiting JAK Activity” (J Nat Prod, 2024).
Active and inactive are the calls of the source. No cut-off for these calls is given here.

Tests used:
BXPC-3 [1] = assay: Reversal of IFN-gamma induced cell death in human BXPC-3 cells at 2.5 to 10 uM incubated for 48 hrs by microscopic analysis; type: functional, cell-based; conditions: dose 2.5-10 µM
[2] = biological target: Transcription factor p65 (Homo sapiens) (UniProt Q04206); assay: Inhibition of p65 phosphorylation in human SK-OV-3 cells at 2.5 to 10 uM preincubated with compound for 1 hrs followed by IFN-gamma stimulation for 1 hrs by Western blot analysis; type: cell-based; conditions: dose 2.5-10 µM, time 2.0 hrs
[3] = Inhibition of IFN-gamma induced PD-L1 protein expression in human SK-OV-3 cells incubated for 48 hrs by high-throughput flow cytometric analysis; conditions: SK-OV-3, 48 h
[4] = Inhibition of IFN-gamma induced PD-L1 protein expression in human A549 cells incubated for 48 hrs by high-throughput flow cytometric analysis; conditions: A549, 48 h
[5] = biological target: Transcription factor p65 (Homo sapiens) (UniProt Q04206); assay: Inhibition of p65 phosphorylation in human A549 cells at 2.5 to 10 uM preincubated with compound for 1 hrs followed by IFN-gamma stimulation for 1 hrs by Western blot analysis; type: cell-based; conditions: dose 2.5-10 µM, time 2.0 hrs
B16-OVA melanoma cell [6] = assay: Sensitization of mouse B16-OVA melanoma cells to OT-1 T cells assessed as reduction in cell viability preincubated with compound in presence of mouse IFN-gamma for 24 hrs followed by OT-1 T cell addition for 24 hrs by CellTiter-Glo assay; type: functional, cell-based; conditions: dose 2.5-10 µM
[7] = biological target: Transcription factor p65 (Homo sapiens) (UniProt Q04206); assay: Inhibition of p65 phosphorylation in human BXPC-3 cells at 2.5 to 10 uM preincubated with compound for 1 hrs followed by IFN-gamma stimulation for 1 hrs by Western blot analysis; type: cell-based; conditions: dose 2.5-10 µM, time 2.0 hrs
[8] = biological target: T1, Tyrosine-protein kinase JAK2 (Homo sapiens, UniProt O60674); assay: Inhibition of N-terminal His-tagged human JAK2 (826 to 1132 residues) expressed in Sf21 cells incubated for 30 mins in presence of ATP by LANCE Ultra assay
B16-OVA melanoma cell [9] = assay: Sensitization of mouse B16-OVA melanoma cells to OT-1 T cells assessed as increase in antigen specific T-cell killing at 2.5 to 10 uM preincubated with compound in presence of mouse IFN-gamma for 24 hrs followed by OT-1 T cell addition for 24 hrs by crystal violet staining based analysis; type: functional; conditions: dose 2.5-10 µM, time 48.0 hrs
[10] = Inhibition of IFN-gamma induced PD-L1 protein expression in human BXPC-3 cells incubated for 48 hrs by high-throughput flow cytometric analysis; conditions: BXPC-3, 48 h
[11] = biological target: T2, Tyrosine-protein kinase JAK3 (Homo sapiens, UniProt P52333); assay: Inhibition of N-terminal His-tagged human JAK3 (795 to 1124 residues) expressed in Sf21 cells incubated for 30 mins in presence of ATP by LANCE Ultra assay
T2 sequence (P52333 whole entry): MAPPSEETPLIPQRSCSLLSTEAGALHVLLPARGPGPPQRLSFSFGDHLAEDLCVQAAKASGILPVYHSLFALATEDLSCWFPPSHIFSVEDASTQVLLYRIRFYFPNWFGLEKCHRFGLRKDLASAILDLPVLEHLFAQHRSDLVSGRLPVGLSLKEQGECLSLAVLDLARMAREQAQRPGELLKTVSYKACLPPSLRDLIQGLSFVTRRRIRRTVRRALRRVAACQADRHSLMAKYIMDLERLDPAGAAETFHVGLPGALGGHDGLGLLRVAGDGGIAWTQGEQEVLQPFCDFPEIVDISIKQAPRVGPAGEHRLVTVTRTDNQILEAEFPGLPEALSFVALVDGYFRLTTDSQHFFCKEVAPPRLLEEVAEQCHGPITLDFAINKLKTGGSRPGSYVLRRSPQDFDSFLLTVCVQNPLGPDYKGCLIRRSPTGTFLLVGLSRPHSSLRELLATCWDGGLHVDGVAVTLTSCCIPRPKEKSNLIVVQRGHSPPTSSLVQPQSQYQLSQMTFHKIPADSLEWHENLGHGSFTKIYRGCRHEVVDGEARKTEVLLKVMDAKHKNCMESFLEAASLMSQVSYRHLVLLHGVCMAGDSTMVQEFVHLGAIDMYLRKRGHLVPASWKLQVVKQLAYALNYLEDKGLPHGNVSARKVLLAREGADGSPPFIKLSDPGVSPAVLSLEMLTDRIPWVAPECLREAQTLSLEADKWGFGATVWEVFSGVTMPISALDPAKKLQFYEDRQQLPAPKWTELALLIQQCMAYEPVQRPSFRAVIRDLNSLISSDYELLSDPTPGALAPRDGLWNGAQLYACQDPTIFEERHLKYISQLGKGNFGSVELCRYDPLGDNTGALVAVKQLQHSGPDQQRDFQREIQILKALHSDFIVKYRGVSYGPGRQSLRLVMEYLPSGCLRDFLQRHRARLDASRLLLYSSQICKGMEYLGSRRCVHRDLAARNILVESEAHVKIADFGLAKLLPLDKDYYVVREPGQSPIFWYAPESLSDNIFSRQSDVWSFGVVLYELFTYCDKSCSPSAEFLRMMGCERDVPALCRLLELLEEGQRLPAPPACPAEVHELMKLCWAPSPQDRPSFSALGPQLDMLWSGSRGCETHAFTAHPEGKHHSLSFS

BXPC-3 [12] = assay: Effect on cell death in human BXPC-3 cells at 2.5 to 10 uM incubated for 48 hrs by microscopic analysis; type: toxicity, cell-based; conditions: bxpc-3, 48 h, dose 2.5-10 µM
[13] = biological target: T1, Tyrosine-protein kinase JAK2; conditions: BXPC-3, Lysate, dose 10.0 µM, time 1.0 hrs
BXPC-3 [14] = assay: Effect on cell viability in human BXPC-3 cells at 2.5 to 10 uM incubated for 48 hrs by CellTiter-Glo assay; type: toxicity, cell-based; conditions: bxpc-3, 48 h, dose 2.5-10 µM
[15] = biological target: Non-receptor tyrosine-protein kinase TYK2 (Homo sapiens, UniProt P29597); assay: Inhibition of N-terminal GST-tagged human TYK2 (871to 1187 residues) expressed in Sf21 cells incubated for 30 mins in presence of ATP by LANCE Ultra assay
Non-receptor tyrosine-protein kinase TYK2, sequence (P29597 whole entry, the tested form may be a part): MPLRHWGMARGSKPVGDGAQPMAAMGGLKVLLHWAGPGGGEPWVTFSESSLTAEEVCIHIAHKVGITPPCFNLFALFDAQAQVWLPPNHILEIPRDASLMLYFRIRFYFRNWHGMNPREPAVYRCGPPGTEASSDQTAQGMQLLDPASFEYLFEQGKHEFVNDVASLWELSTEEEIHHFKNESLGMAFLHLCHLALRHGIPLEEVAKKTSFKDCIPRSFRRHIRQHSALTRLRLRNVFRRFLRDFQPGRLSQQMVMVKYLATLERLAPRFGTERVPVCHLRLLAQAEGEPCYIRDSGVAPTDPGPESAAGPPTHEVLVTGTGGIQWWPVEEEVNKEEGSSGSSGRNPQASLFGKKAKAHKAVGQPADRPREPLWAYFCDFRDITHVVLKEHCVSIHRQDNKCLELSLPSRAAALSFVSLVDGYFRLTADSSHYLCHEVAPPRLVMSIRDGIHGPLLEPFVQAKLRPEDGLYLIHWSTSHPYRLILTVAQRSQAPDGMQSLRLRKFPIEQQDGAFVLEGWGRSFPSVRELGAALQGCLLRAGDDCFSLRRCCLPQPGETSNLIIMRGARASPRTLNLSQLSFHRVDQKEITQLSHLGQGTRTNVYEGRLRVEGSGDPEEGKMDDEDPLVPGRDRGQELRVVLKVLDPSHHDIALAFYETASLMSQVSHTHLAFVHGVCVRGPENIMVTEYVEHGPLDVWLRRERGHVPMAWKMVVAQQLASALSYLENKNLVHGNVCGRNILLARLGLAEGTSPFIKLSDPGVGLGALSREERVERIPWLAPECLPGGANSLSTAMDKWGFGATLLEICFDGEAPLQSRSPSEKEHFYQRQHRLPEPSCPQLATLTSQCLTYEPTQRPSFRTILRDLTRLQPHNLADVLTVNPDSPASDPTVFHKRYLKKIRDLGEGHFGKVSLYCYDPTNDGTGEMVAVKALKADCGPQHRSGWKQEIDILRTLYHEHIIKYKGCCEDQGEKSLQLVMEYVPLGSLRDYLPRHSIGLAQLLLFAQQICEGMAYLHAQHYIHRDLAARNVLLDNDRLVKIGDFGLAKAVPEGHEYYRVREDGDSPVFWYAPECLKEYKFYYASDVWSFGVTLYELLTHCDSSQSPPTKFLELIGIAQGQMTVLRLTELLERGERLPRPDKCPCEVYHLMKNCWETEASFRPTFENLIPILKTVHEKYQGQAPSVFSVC

Transcription factor p65 (Homo sapiens), sequence (Q04206 whole entry, the tested form may be a part): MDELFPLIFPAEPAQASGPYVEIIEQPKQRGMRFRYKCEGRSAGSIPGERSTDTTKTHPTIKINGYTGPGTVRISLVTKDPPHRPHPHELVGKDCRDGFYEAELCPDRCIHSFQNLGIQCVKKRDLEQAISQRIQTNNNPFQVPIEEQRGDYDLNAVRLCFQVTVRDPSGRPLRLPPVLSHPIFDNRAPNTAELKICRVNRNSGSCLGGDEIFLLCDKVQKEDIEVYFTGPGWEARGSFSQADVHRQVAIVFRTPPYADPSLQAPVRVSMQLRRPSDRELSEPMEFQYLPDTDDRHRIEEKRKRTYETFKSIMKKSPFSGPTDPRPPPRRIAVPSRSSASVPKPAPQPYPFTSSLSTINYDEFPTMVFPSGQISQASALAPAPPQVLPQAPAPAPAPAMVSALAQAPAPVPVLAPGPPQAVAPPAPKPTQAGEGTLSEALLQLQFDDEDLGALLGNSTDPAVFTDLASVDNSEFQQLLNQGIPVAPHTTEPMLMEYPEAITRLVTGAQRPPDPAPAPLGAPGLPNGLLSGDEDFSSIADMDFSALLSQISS
T1 sequence (O60674 whole entry, the tested form may be a part): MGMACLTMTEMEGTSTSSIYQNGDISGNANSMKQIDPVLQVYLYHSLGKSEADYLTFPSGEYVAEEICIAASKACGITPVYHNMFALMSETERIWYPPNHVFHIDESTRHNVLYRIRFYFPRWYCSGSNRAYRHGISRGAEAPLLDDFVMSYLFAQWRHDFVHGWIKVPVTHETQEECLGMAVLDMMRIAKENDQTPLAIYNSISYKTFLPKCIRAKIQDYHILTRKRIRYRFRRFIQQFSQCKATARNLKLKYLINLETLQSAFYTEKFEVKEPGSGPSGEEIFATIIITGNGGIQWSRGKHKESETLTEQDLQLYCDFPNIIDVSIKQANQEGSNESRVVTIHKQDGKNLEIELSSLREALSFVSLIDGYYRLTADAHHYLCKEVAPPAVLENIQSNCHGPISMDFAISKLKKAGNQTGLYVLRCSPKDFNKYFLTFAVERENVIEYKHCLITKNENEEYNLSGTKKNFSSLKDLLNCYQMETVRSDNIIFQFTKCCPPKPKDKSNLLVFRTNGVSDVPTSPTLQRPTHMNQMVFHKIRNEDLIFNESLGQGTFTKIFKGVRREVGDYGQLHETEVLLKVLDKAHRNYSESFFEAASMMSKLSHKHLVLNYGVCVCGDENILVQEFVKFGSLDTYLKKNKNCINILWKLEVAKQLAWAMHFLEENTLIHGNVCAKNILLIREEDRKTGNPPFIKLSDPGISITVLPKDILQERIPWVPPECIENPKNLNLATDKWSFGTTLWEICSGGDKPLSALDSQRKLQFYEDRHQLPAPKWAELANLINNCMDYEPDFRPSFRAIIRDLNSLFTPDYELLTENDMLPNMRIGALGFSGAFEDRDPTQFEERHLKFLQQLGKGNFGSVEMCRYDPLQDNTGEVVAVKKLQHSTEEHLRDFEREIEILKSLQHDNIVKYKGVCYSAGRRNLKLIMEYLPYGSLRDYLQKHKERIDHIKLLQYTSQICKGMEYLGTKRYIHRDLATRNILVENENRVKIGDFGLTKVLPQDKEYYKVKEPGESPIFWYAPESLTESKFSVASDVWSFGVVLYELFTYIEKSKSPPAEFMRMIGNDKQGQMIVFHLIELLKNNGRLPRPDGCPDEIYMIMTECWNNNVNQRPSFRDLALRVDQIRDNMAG

inhibition [2]: inactive
IC50 [3]: 6500 nM
IC50 [4]: 2800 nM
inhibition [5]: inactive
inhibition [7]: inactive
IC50 [8]: 1200 nM
IC50 [10]: 4100 nM
IC50 [11]: 520 nM
ΔTm [13]: 11 °C
IC50 [15]: 530 nM
Compound: C/C(=C\C[C@@H](C)[C@H]1CC[C@H]2[C@@H]3C[C@H](OS(=O)(=O)[O-])[C@H]4C[C@H](OS(=O)(=O)[O-])[C@@H](OS(=O)(=O)[O-])C[C@]4(C)[C@H]3CC[C@]12C)C(C)(C)C(C)C.[Na+].[Na+].[Na+]
Activity (BXPC-3 [1]): Active
Activity (B16-OVA melanoma cell [6]): Dose-Dependent Effect
Activity (B16-OVA melanoma cell [9]): Active
Activity (BXPC-3 [12]): Non-Toxic
Activity (BXPC-3 [14]): Non-Toxic
